{"source": "paper PMC9084902", "about": "“Low-Molecular Weight Protamine Overcomes Chondroitin Sulfate Inhibition of Neural Regeneration” (Frontiers in Cell and Developmental Biology, 2022)", "key": {"[1]": {"system": "mouse cervical hemicontusion model", "experiment": "vertical screen (climbing) test, C5 hemicontusion, subcutaneous delivery", "type": "in vivo, C57BL6/NHsd mouse", "conditions": "16 µg s.c. daily 49 days; n = 7–13", "experimental": "The effectiveness of systemically delivered LMWP in treatment of spinal cord trauma was tested in the cervical hemicontusion model (Figure 1B). Baseline behavior was assessed 1 week before the trauma surgery, and the results were used for balanced distribution of animals to the 3 experimental groups (“sham”, “trauma + PBS” and “trauma + LMWP”). Each housing cage contained animals from all three groups. Subcutaneous injections to the back area were started on the next day after the trauma and continued daily for 49 days. LMWP was injected subcutaneously at the 16 µg dose in 200 µl of sterile PBS. The groups “sham” and “trauma + PBS” got the same volume of PBS. Behavioral assessment was started 2 weeks after the trauma and finished at the week 12.\nThe mouse was placed on the brink of a horizontal wire screen (25 × 22 cm, diameter of wires 2 mm spaced at 1 cm) faced to edge. Immediately after that the screen was turned vertically to place the mouse to the upside down position at the lower edge. The time that the animal needed to climb to the upper edge was measured during 1 min. If the animal was not able to climb up or fell down from the screen the maximum time 60 s was marked as the climbing time. The average parameter of three subsequent trials repeated with at least 1 min interval was used for data analysis."}, "cortical neurons": {"system": "cortical neurons", "experiment": "neurite outgrowth on aggrecan substrate, cortical neurons", "type": "cell-based, Wistar rat", "experimental": "The cortex or hippocampus were obtained from 17 days-old Wistar rat embryos and transferred to ice-cold preparation solution. Neurons were further isolated exactly as described earlier in Sahu’s publication ([Sahu et al., 2019]). Primary rat cortical or hippocampal neurons (E17 Wistar rats) were cultured in 96-well plates at the density of 20000 cells/well in Neurobasal medium supplemented with B27 serum substitute, penicillin, streptomycin and L-glutamate for 2 days in vitro (DIV). The plates were precoated with aggrecan (5 ug/ml, 150 µl/well). Protamine or protamine peptides were added to the culture medium at different concentrations. To analyze the effect of protamine or its fragment on neurite outgrowth, the plates were coated with 10 μg/ml of protamine or LMWP. For the experiment with chondroitinase, the aggrecan-coated plates were treated with chondroitinase ABC (Amsbio AMS. E1028, lot CF0029) for 4 h followed by 2 times washing with PBS before cell plating, and the cell culture imaging was carried out after 3 DIV incubation with 4 uM LMWP added to the medium. Neurite outgrowth was imaged with phase contrast microscopy (Olympus IX70 microscope and Retiga 2000R digital camera) using both x10 and x20 objectives. […] Neurite length was measured with ImageJ software and averaged from 2 to 3 independent experiments with 1–2 technical replicas in each independent experiment."}, "hippocampal neurons": {"system": "hippocampal neurons", "experiment": "cell toxicity seen in neuronal morphology / neuronal cells in vitro", "type": "cell-based, Wistar rat", "conditions": "neuronal systems, Figures 2, 4", "experimental": "The cortex or hippocampus were obtained from 17 days-old Wistar rat embryos and transferred to ice-cold preparation solution. Neurons were further isolated exactly as described earlier in Sahu’s publication ([Sahu et al., 2019]). Primary rat cortical or hippocampal neurons (E17 Wistar rats) were cultured in 96-well plates at the density of 20000 cells/well in Neurobasal medium supplemented with B27 serum substitute, penicillin, streptomycin and L-glutamate for 2 days in vitro (DIV). The plates were precoated with aggrecan (5 ug/ml, 150 µl/well). Protamine or protamine peptides were added to the culture medium at different concentrations. To analyze the effect of protamine or its fragment on neurite outgrowth, the plates were coated with 10 μg/ml of protamine or LMWP. For the experiment with chondroitinase, the aggrecan-coated plates were treated with chondroitinase ABC (Amsbio AMS. E1028, lot CF0029) for 4 h followed by 2 times washing with PBS before cell plating, and the cell culture imaging was carried out after 3 DIV incubation with 4 uM LMWP added to the medium. Neurite outgrowth was imaged with phase contrast microscopy (Olympus IX70 microscope and Retiga 2000R digital camera) using both x10 and x20 objectives. Processes of neurons over the diameter of the neuronal soma were interpreted as neurites. Neurite length was measured with ImageJ software and averaged from 2 to 3 independent experiments with 1–2 technical replicas in each independent experiment."}}, "data": [{"sequence": "VSRRRRRRGGRRRR [LMWP, low-molecular weight protamine]", "values": [{"measurement": "climbing test recovery versus PBS", "setting": "[1]", "result": "tendency for better recovery in the LMWP group compared to the PBS group"}, {"measurement": "stimulation of neurite outgrowth versus 0 μg/ml", "setting": "cortical neurons; LMWP in medium at 1.75 µM (3.3 μg/ml), p = 0.0319, n = 6, Figure 5A", "result": "~6", "unit": "times"}, {"measurement": "stimulation of neurite outgrowth versus 0 μg/ml", "setting": "cortical neurons; LMWP in medium at 3.5 µM (6.6 μg/ml), p < 0.0001, n = 6, Figure 5A", "result": "more than 20 times"}, {"measurement": "toxicity for neuronal cells (summary)", "setting": "hippocampal neurons", "result": "little if any toxicity even at high concentrations"}]}]}
